Measurements reported in patent US20080311126A1, “Antisense Oligonucleotides Directed to Ribonucleotide Reducatase R2 and Uses Thereof in Combination Therapies for the Treatment of Cancer” (Genesense Technologies, Inc, priority 2004, published 2008).
Oligonucleotides are written 5' to 3', each unit as a sugar letter and its base; * is a phosphorothioate linkage, no mark a phosphodiester; rarer units and linkages stand in square brackets, end groups in braces. Plain capitals give the bases only. d = 2'-deoxy (DNA)

Legend:
Assay in all cases: Relative colony forming efficiency (Example 17, Table 13)
Assay type in all cases: cell-based, human
A549 lung cell carcinoma = conditions: averages of 2-8 determinations
Description: (§1) Colony forming efficiency was determined using standard protocols. […] The test oligonucleotides were added to cell cultures in the presence of 2.5 μg of DOTMA/DOPE (Lipofectin; Life Technologies, Inc.) for four hours. The oligonucleotide was tested at 0.2 μM unless otherwise indicated. Controls were the cultures treated with lipofectin but without the oligonucleotide. […] Surviving cells were visualized by methylene blue staining, and colonies were scored. In some experiments cell aliquots were removed from the culture and viability was determined using the trypan blue exclusion test. Results were analyzed as percent of surviving cells compared to control cells. To test the antisense effects of many of these sequences as phosphorthioate deoxyribonucleotides, they were examined in relative colony forming experiments conducted as described in Example 16 with a series of human tumour cell lines. The results (shown as % inhibition of colony forming ability) obtained with cancer cells derived from the bladder, breast, lung, colon, pancreas, prostate, liver and cervix, are shown in Table 13. The specific cell lines employed are as follows: […]

[1] = test system: HCT116 colon cell carcinoma; conditions: averages of 2-8 determinations
Description: as §1

[2] = test system: MDA PaCa-2 pancreatic cell carcinoma; conditions: MIA PaCa-2 pancreatic cell carcinoma; averages of 2-8 determinations
Description: as §1

[3] = test system: MDA-MB-231 breast cell adenocarcinoma; conditions: averages of 2-8 determinations
Description: as §1

[4] = test system: PC-3 prostrate cell adenocarcinoma; conditions: averages of 2-8 determinations
Description: as §1

[5] = test system: T24 bladder cell carcinoma; conditions: averages of 2-8 determinations
Description: as §1

[6] = test system: HepG2 hepatocellular carcinoma; conditions: averages of 2-8 determinations
Description: as §1

Sequence | Reduced relative colony forming efficiency, A549 (% inhibition of colony forming ability) (A549 lung cell carcinoma) [%] | Reduced relative colony forming efficiency, HCT116 (% inhibition of colony forming ability) [1] [%] | Reduced relative colony forming efficiency, MIA PaCa-2 (% inhibition of colony forming ability) [2] [%] | Reduced relative colony forming efficiency, MDA-MB-231 (% inhibition of colony forming ability) [3] [%] | Reduced relative colony forming efficiency, PC-3 (% inhibition of colony forming ability) [4] [%] | Reduced relative colony forming efficiency, T24 (% inhibition of colony forming ability) [5] [%] | Reduced relative colony forming efficiency, HepG2 (% inhibition of colony forming ability) [6] [%]
GACATCACTCCCATCCTCTG (antisense dG*dA*dC*dA*dT*dC*dA*dC*dT*dC*dC*dC*dA*dT*dC*dC*dT*dC*dT*dG) [AS-II-1302-20] | 93.17 | 71.98 | 23.86 | 92.2 | 79.01 | 70.56 | –
TGCCTCCGACCCTTCCCATT (antisense dT*dG*dC*dC*dT*dC*dC*dG*dA*dC*dC*dC*dT*dT*dC*dC*dC*dA*dT*dT) [AS-II-14-20] | – | – | 47.93 | 91.24 | 92.76 | 77.59 | 88.4
ACCCTTCCCATTGGCTGCGC (antisense dA*dC*dC*dC*dT*dT*dC*dC*dC*dA*dT*dT*dG*dG*dC*dT*dG*dC*dG*dC) [AS-II-6-20] | – | – | 95.15 | 85.4 | 59.21 | 73.55 | 97.89
CGGGTCCGTGATGGGCGCGA (antisense dC*dG*dG*dG*dT*dC*dC*dG*dT*dG*dA*dT*dG*dG*dG*dC*dG*dC*dG*dA) [AS-II-217-20] | – | 61.85 | 87.38 | 52.7 | 87.41 | 65.02 | 99.55
CACACAACCTACTTACACCA (antisense dC*dA*dC*dA*dC*dA*dA*dC*dC*dT*dA*dC*dT*dT*dA*dC*dA*dC*dC*dA) [AS-II-2372-20] | 96.41 | 64.7 | 94.36 | 90.09 | 86.06 | 61.13 | –
TTCATGGTGTGGCTAGTTGG (antisense dT*dT*dC*dA*dT*dG*dG*dT*dG*dT*dG*dG*dC*dT*dA*dG*dT*dT*dG*dG) [AS-II-1438-20] | 51.27 | – | 42.13 | 69.06 | 83.96 | 43.7 | –
TTTTAACTGGCTGTGCTGGT (antisense dT*dT*dT*dT*dA*dA*dC*dT*dG*dG*dC*dT*dG*dT*dG*dC*dT*dG*dG*dT) [AS-II-1666-20] | 54.82 | – | 49.72 | 26.71 | 86.06 | 71.71 | –
TTAGTGGTCAGGAGAATGTA (antisense dT*dT*dA*dG*dT*dG*dG*dT*dC*dA*dG*dG*dA*dG*dA*dA*dT*dG*dT*dA) [AS-II-1819-20] | – | – | 20.02 | 90.68 | 85.46 | 53.74 | 83.89
AACCGGAAAAGAAAATGCCT (antisense dA*dA*dC*dC*dG*dG*dA*dA*dA*dA*dG*dA*dA*dA*dA*dT*dG*dC*dC*dT) [AS-II-890-20] | 81.6 | – | 66.02 | 88.2 | 87.93 | 82.07 | –
GGGCACATCTTCAGTTCATT (antisense dG*dG*dG*dC*dA*dC*dA*dT*dC*dT*dT*dC*dA*dG*dT*dT*dC*dA*dT*dT) [AS-II-1364-20] | 95.59 | 77.29 | 59.34 | 93.87 | 79.01 | 66.59 | –
TCGCCTACTCTCTTCTCAAA (antisense dT*dC*dG*dC*dC*dT*dA*dC*dT*dC*dT*dC*dT*dT*dC*dT*dC*dA*dA*dA) [AS-II-1278-20] | – | – | 57.05 | 90.68 | 85.31 | 65.42 | –
GGCCCAGATCACCCCTAAAT (antisense dG*dG*dC*dC*dC*dA*dG*dA*dT*dC*dA*dC*dC*dC*dC*dT*dA*dA*dA*dT) [AS-II-2128-20] | 87.31 | – | 39.23 | 91.3 | 88.89 | 83.74 | –
TATCGCCGCCGTGAGTACAA (antisense dT*dA*dT*dC*dG*dC*dC*dG*dC*dC*dG*dT*dG*dA*dG*dT*dA*dC*dA*dA) [AS-II-1768-20] | 86.8 | – | 60.36 | 91.56 | 86.36 | 74.56 | –
AAACGGCTTCTCACACATAT (antisense dA*dA*dA*dC*dG*dG*dC*dT*dT*dC*dT*dC*dA*dC*dA*dC*dA*dT*dA*dT) [AS-II-2151-20] | 79.19 | – | 62.15 | 95.14 | 84.86 | 79.83 | –
ATTAAAATCTGCGTTGAAGC (antisense dA*dT*dT*dA*dA*dA*dA*dT*dC*dT*dG*dC*dG*dT*dT*dG*dA*dA*dG*dC) [AS-II-1700-20] | 77.28 | – | 34.52 | 30.75 | 90.63 | 70.94 | –
CAGAATATCGACGCAAAAGA (dC*dA*dG*dA*dA*dT*dA*dT*dC*dG*dA*dC*dG*dC*dA*dA*dA*dA*dG*dA) [AS-II-909-20] | 78.68 | – | 46.13 | 45.96 | 84.86 | 78.57 | –
TGGCTGTGCTGGTTAAAGGA (antisense dT*dG*dG*dC*dT*dG*dT*dG*dC*dT*dG*dG*dT*dT*dA*dA*dA*dG*dG*dA) [AS-II-1659-20] | 54.7 | – | 42.54 | 42.86 | 81.56 | 74.09 | –
TGGCACCAACTGACTAATAT (antisense dT*dG*dG*dC*dA*dC*dC*dA*dA*dC*dT*dG*dA*dC*dT*dA*dA*dT*dA*dT) [AS-II-1976-20] | – | – | – | 89.6 | 88.16 | – | –
